MIC data for one compound are collected here from ChEMBL document CHEMBL1629650 (2009).

Holding throughout (type): functional
Assay [1] relates to Mycobacterium tuberculosis. The assay can be described thus: Antibacterial activity against Mycobacterium tuberculosis Beijing by modified conventional agar proportion method.
Assay [2] relates to Mycobacterium tuberculosis. Briefly: Antibacterial activity against Mycobacterium tuberculosis H37Rv by modified conventional agar proportion method.
The subject of assay [3] is Mycobacterium tuberculosis. Briefly: Antibacterial activity against HYG cassette-positive Mycobacterium tuberculosis Rv8100 by modified conventional agar proportion method.
Assay [4] relates to Mycobacterium tuberculosis. The assay can be described thus: Antibacterial activity against HYG cassette-positive Mycobacterium tuberculosis Rv8101 by modified conventional agar proportion method.
In assay [5] the test system is Mycobacterium tuberculosis. The assay can be described thus: Antibacterial activity against HYG cassette-positive Mycobacterium tuberculosis Rv4400 by modified conventional agar proportion method.
Assay [6] concerns Mycobacterium tuberculosis. Briefly: Antibacterial activity against HYG cassette-positive Mycobacterium tuberculosis Rv4401 by modified conventional agar proportion method.
Assay [7] relates to Mycobacterium tuberculosis. Briefly: Antibacterial activity against HYG cassette-positive Mycobacterium tuberculosis B5200 by modified conventional agar proportion method.
The subject of assay [8] is Mycobacterium tuberculosis. Briefly: Antibacterial activity against HYG cassette-positive Mycobacterium tuberculosis B5201 by modified conventional agar proportion method.
Assay [9] has as its system Mycobacterium tuberculosis. The assay can be described thus: Antibacterial activity against HYG cassette-positive Mycobacterium tuberculosis B5400 by modified conventional agar proportion method.
For assay [10], the system named is Mycobacterium tuberculosis. Briefly: Antibacterial activity against HYG cassette-positive Mycobacterium tuberculosis B5401 by modified conventional agar proportion method.
The subject of assay [11] is Mycobacterium tuberculosis. The assay can be described thus: Antibacterial activity against HYG cassette-negative Mycobacterium tuberculosis H37Rv by modified conventional agar proportion method.
Assay [12] concerns Mycobacterium tuberculosis. Briefly: Antibacterial activity against HYG cassette-positive Mycobacterium tuberculosis RvAS9 by modified conventional agar proportion method.
Assay [13] has as its system Mycobacterium tuberculosis. Briefly: Antibacterial activity against HYG cassette-negative Mycobacterium tuberculosis Beijing by modified conventional agar proportion method.
Assay [14] has as its system Mycobacterium tuberculosis. Briefly: Antibacterial activity against HYG cassette-positive Mycobacterium tuberculosis BAS10 by modified conventional agar proportion method.

Structures are written as SMILES. Values after ≈ are worked out from the molar mass of the structure shown.

Regarding `CC[C@@H](CO)NCCN[C@@H](CC)CO` [ETHAMBUTOL], the MIC in assay [1] worked out at 5 µg/mL (≈ 24.5 µM); in assay [2], 5 µg/mL (≈ 24.5 µM); in [3] it was 5 µg/mL (≈ 24.5 µM); in assay [4], 5 µg/mL (≈ 24.5 µM); in assay [5] it was 10 µg/mL (≈ 48.9 µM); in assay [6], 10 µg/mL (≈ 48.9 µM). Also, the minimum inhibitory concentration (MIC) in assay [7], in assay [8], in assay [9], in [10], in assay [11] and in [12] was 5 µg/mL (≈ 24.5 µM) each time. The MIC in [13] and in assay [14] was 5 µg/mL (≈ 24.5 µM) in each case.
